Legend:
Type in all cases: cell-based
keratinocytes (HaCaT) = test: Safety, MTT test in keratinocytes; settings: 48 hours
Procedure: (§1) In order to test the safety of the compounds, both normal human cells were used: keratinocytes (HaCaT), fibroblasts (BJ), primary melanocytes that occur in the skin, as well as human cancer cells: the hepatocarcinoma line HepG2 and the neuroblastoma line SH-SY5Y, which are considered a model for the assessment of hepatocytotoxicity and neurocytotoxicity. The concentrations of the tested compounds in the range of […] were used in the studies. The cell lines used in the research were purchased from the American Type Culture Collection (ATCC) and were cultured in media recommended by the manufacturer with the addition of FBS and antibiotics in an incubator ensuring appropriate culture conditions, i.e. humidity, temperature and CO2 concentration. Cells were seeded into multiwell plates and incubated with the test compounds for 48 hours. After this time, MTT and LDH tests were performed to assess cell viability. The MTT test is based on the ability to transform the substrate: [3-(4,5-dimethyl-2-thiazolyl)-2,5-diphenyl-2H-tetrazolium bromide into a colored product only by living cells. The absorbance at 570 nm, which corresponds to the absorption maximum for the product, is directly proportional to cell viability. The LDH test is based on testing the activity of the enzyme lactate dehydrogenase in the culture medium, which is released from cells as a result of damage to the cell membrane, e.g. as a result of cell death. Triton X-100 was used as a positive control in the test. The determination is colorimetric, the substrate is transformed by the released enzyme into a colored product, an increase in absorbance indicates a larger amount of the released enzyme, and thus confirms greater damage to cell membranes. Tables 7 and 8 present the results obtained, which correspond to the viability of cells incubated with the compounds in relation to the viability of cells constituting a control sample, i.e. incubated with the solvent (DMSO) at the same concentration as in the case of the groups tested in the MTT test or in relation to the results obtained for the Triton X-100 positive control in the LDH test. They indicate that the compounds are safe at the concentrations tested.

fibroblasts (BJ) = test: Safety, MTT test in fibroblasts; settings: 48 hours
Procedure: as §1

primary melanocytes = test: Safety, LDH test in primary melanocytes; settings: 48 hours, vs Triton X-100
Procedure: as §1

hepatocarcinoma HepG2 = test: Safety, LDH test in HepG2; settings: 48 hours, vs Triton X-100
Procedure: as §1

SMILES	MTT, Keratinocytes (HaCaT) (keratinocytes (HaCaT); 100 μM)	MTT, Keratinocytes (HaCaT) (keratinocytes (HaCaT); 150 μM)	MTT, Keratinocytes (HaCaT) (keratinocytes (HaCaT); 200 μM)	MTT, Keratinocytes (HaCaT) (keratinocytes (HaCaT); 250 μM)	MTT, Fibroblasts (BJ) (fibroblasts (BJ); 100 μM)	MTT, Fibroblasts (BJ) (fibroblasts (BJ); 150 μM)	MTT, Fibroblasts (BJ) (fibroblasts (BJ); 200 μM)	MTT, Fibroblasts (BJ) (fibroblasts (BJ); 250 μM)	LDH, Primary melanocytes (primary melanocytes; 100 μM)	LDH, Primary melanocytes (primary melanocytes; 150 μM)	LDH, Primary melanocytes (primary melanocytes; 200 μM)	LDH, Primary melanocytes (primary melanocytes; 250 μM)	LDH, Hepatocarcinoma HepG2 (hepatocarcinoma HepG2; 100 μM)	LDH, Hepatocarcinoma HepG2 (hepatocarcinoma HepG2; 150 μM)	LDH, Hepatocarcinoma HepG2 (hepatocarcinoma HepG2; 200 μM)	LDH, Hepatocarcinoma HepG2 (hepatocarcinoma HepG2; 250 μM)
O=C(/C=C/c1ccc(Cl)cc1)NCCCO [H-330/21, (2E)-3-(4-chlorophenyl)-N-(3-hydroxypropyl)prop-2-enamide]	102.03 ± 1.45 % of solvent control	101.42 ± 2.04 % of solvent control	97.07 ± 2.81 % of solvent control	94.89 ± 1.06 % of solvent control	100.54 ± 5.01 % of solvent control	94.85 ± 3.51 % of solvent control	85.52 ± 3.08 % of solvent control	76.51 ± 1.80 % of solvent control	5.63 percentage of positive control	13.09 percentage of positive control	10.91 percentage of positive control	18.10 percentage of positive control	5.38 percentage of positive control	4.90 percentage of positive control	12.16 percentage of positive control	19.02 percentage of positive control
O=C(/C=C/c1ccc(Cl)cc1)NCCO [H-427/21, (2E)-3-(4-chlorophenyl)-N-(2-hydroxyethyl)prop-2-enamide]	100.47 ± 3.65 % of solvent control	98.15 ± 2.63 % of solvent control	99.24 ± 3.00 % of solvent control	89.94 ± 4.66 % of solvent control	101.82 ± 3.99 % of solvent control	100.76 ± 3.34 % of solvent control	100.37 ± 3.92 % of solvent control	98.13 ± 2.81 % of solvent control	3.93 percentage of positive control	4.44 percentage of positive control	4.31 percentage of positive control	15.01 percentage of positive control	3.09 percentage of positive control	4.45 percentage of positive control	5.98 percentage of positive control	13.51 percentage of positive control
